Measured values: ChEMBL document CHEMBL4342426, “Structure-activity relationship of 4-azaindole-2-piperidine derivatives as agents against Trypanosoma cruzi” (Bioorg Med Chem Lett, 2020)
pIC50: −log10 of the molar value.

How the values were obtained:
[1] = cells; conditions: Homo sapiens, MRC-5 SV2, 72 h
Description: (§1) Cytotoxicity against human MRC5 SV2 cells assessed as reduction in cell viability incubated for 3 days by fluorimetry

[2] = system: Macrophage; experiment: cells; conditions: Mus musculus, 72 h
Description: (§2) Cytotoxicity against mouse peritoneal Macrophage cells assessed as reduction in cell viability incubated for 3 days by fluorimetry

[3] = in vitro; conditions: human, MRC5 SV2 cells
Description: as §1

[4] = in vitro; conditions: human, liver microsomes
Description: Metabolic stability in human liver microsomes assessed as intrinsic clearance at 0.5 uM incubated for 30 mins by LC-MS/MS analysis

[5] = in vitro; conditions: mouse, liver microsomes
Description: Metabolic stability in mouse liver microsomes assessed as intrinsic clearance at 0.5 uM incubated for 30 mins by LC-MS/MS analysis

[6] = physchem; conditions: buffer, pH 7.4
Description: Lipophilicity, logD of compound at pH 7.4 by HPLC analysis

[7] = in vitro; conditions: human, MRC5 SV2 cells; remark: listed apart in the source
Description: Selectivity index, ratio of IC50 for human MRC5 SV2 cells to IC50 for Trypanosoma cruzi Tulahuen CL2 amastigotes infected in human MRC5 SV2 cells

[8] = in vitro; conditions: mouse, peritoneal macrophages
Description: as §2

[9] = in vitro; conditions: PAMPA
Description: Effective permeability of compound by PAMPA assay

[10] = system: Trypanosoma cruzi; experiment: microbe, parasite or virus in culture; conditions: Tulahuen CL2, MRC-5 SV2, 168 h
Description: Antitrypanosomal activity against Trypanosoma cruzi Tulahuen CL2 amastigotes infected in human MRC5 SV2 cells incubated for 7 days by chlorophenol red beta-D-galactopyranoside substrate based spectrophotometric assay

[11] = system: Trypanosoma brucei; experiment: microbe, parasite or virus in culture; conditions: Squib 427, 72 h
Description: Antitrypanosomal activity against Trypanosoma brucei Squib 427 assessed as reduction in parasite growth incubated for 72 hrs by resazurin dye based fluorimetric analysis

[12] = system: Trypanosoma brucei rhodesiense; experiment: microbe, parasite or virus in culture; conditions: STIB900, 72 h
Description: Antiprotozoal activity against Trypanosoma brucei rhodesiense STIB900 trypomastigotes incubated for 72 hrs by resazurin dye based fluorimetric analysis

[13] = system: Leishmania infantum; experiment: microbe, parasite or virus in culture; conditions: for pIC50: MHOM/MA(BE)/67/ITMAP263, 120 h; for IC90: MHOM/MA(BE)/67/ITMAP263, in Mus musculus, 120 h
Description: Antileishmanial activity against amastigote stage of Leishmania infantum MHOM/MA(BE)/67/ITMAP263 infected in mouse peritoneal macrophage assessed as parasite growth inhibition incubated for 5 days by Giemsa staining based assay

[14] = in vitro; conditions: mouse, liver microsomes; remark: listed apart in the source
Description: Metabolic stability in mouse liver microsomes assessed as fraction unbound at 0.5 uM incubated for 30 mins by LC-MS/MS analysis

IC90 at 72 h [3] | CLint scaled at 0.5 h, 0.5 µM [4] | microsomal CLint at 0.5 h, 0.5 µM [4] | CLint scaled at 0.5 h, 0.5 µM [5] | microsomal CLint at 0.5 h, 0.5 µM [5] | logD [6] | IC90 at 72 h [8] | Papp [9] | pIC50 [11] | IC90 [11] | pIC50 [12] | IC90 [12] | pIC50 [13] | IC90 [13] | fraction unbound at 0.5 h, 0.5 µM [14] | SMILES | pIC50 [1] | pIC50 [2] | selectivity ratio [7] | pIC50 [10] | IC90 [10]
64 µM | 68.7 mL/min/kg | 44.6 µL/min/mg | 5590 mL/min/kg | 1230 µL/min/mg | 2.62 | 64 µM | 1.58 ×10⁻⁶ cm/s | 4.19 | 64 µM | 4.36 | 64 µM | 4.19 | 64 µM |  | O=C(c1ccc(F)cc1)N1CCC(c2cc3ncccc3[nH]2)C1 (stereo unspecified) | 4.19 | 4.19 | 7.15 | 5.05 | 64 µM
64 µM | 51.5 mL/min/kg | < 23 µL/min/mg |  |  | 2.37 | 64 µM | 0.379 ×10⁻⁶ cm/s | 4.19 | 64 µM | 4.19 | 64 µM | 4.19 | 64 µM |  | N#Cc1ccc(C(=O)N2CCCC(c3cc4ncccc4[nH]3)C2)cc1 (stereo unspecified) | 4.19 | 4.19 | 2.49 | 4.59 | 59 µM
64 µM | 33.5 mL/min/kg | 27.5 µL/min/mg | 115 mL/min/kg | 31.9 µL/min/mg | 1.8 | 64 µM | 1.03 to 1.37 ×10⁻⁶ cm/s | 4.19 | 64 µM | 4.19 | 64 µM | 4.19 | 64 µM | 0.89 | Cn1nccc1C(=O)N1CCCC(c2cc3ncccc3[nH]2)C1 (stereo unspecified) | 4.19 | 4.19 |  | 4.19 | 64 µM
64 µM | < 31.2 mL/min/kg | < 23 µL/min/mg | 314 mL/min/kg | 78.8 µL/min/mg | 2.15 | 64 µM | 1.56 to 2.14 ×10⁻⁶ cm/s | 4.19 | 64 µM | 4.19 | 64 µM | 4.19 | 64 µM | 0.801 | Cc1nc(C)c(C(=O)N2CCCC(c3cc4ncccc4[nH]3)C2)o1 (stereo unspecified) | 4.19 | 4.19 |  | 4.19 | 64 µM
64 µM | ≥ 38 mL/min/kg | 35.2 µL/min/mg | ≥ 623 mL/min/kg | 195 µL/min/mg | 3.06 | 64 µM | 0.907 ×10⁻⁶ cm/s | 4.19 | 64 µM | 4.40 | 64 µM | 4.41 | 58.5 µM |  | O=C(c1ccc(F)cc1)N1CC=C(c2cc3ncccc3[nH]2)CC1 | 4.19 | 4.19 | 25.1 | 5.59 | 64 µM
32 µM | 110 mL/min/kg |  | 2600 mL/min/kg |  |  | 32 µM |  | 4.49 | 32 µM | 4.51 | 32 µM | 4.49 | 32 µM |  | COc1cccc(C(=O)N2CCCC(c3cc4ncccc4[nH]3)C2)c1OC (stereo unspecified) | 4.49 | 4.49 | 8 | 5.39 | 7.52 µM
64 µM | 167 mL/min/kg | 129 µL/min/mg | 6690 mL/min/kg | 1750 µL/min/mg | 2.86 | 64 µM | 3.09 ×10⁻⁶ cm/s | 4.19 | 64 µM | 4.19 | 64 µM | 4.19 | 64 µM |  | Cc1ccoc1C(=O)N1CCCC(c2cc3ncccc3[nH]2)C1 (stereo unspecified) | 4.19 | 4.19 | 3 | 4.67 | 55.5 µM
32 µM | 32.7 mL/min/kg |  | 1830 mL/min/kg |  |  | 32 µM |  | 4.49 | 32 µM | 4.60 | 32 µM | 4.49 | 32 µM |  | O=C(c1cc(C2CC2)on1)N1CCCC(c2cc3ncccc3[nH]2)C1 (stereo unspecified) | 4.49 | 4.49 | 8.15 | 5.41 | 7.5 µM
64 µM | 50.3 mL/min/kg | 27.9 µL/min/mg | 132 mL/min/kg | 24.9 µL/min/mg | 2.68 | 64 µM | 0.887 ×10⁻⁶ cm/s | 4.19 | 64 µM | 4.19 | 64 µM | 4.19 | 64 µM | 0.6 | O=C(c1ccc(C(F)(F)F)nc1)N1CCCC(c2cc3ncccc3[nH]2)C1 (stereo unspecified) | 4.19 | 4.19 |  | 4.19 | 64 µM
64 µM | 167 mL/min/kg | 135 µL/min/mg | 10500 mL/min/kg | 2900 µL/min/mg | 2.39 | 64 µM | 13.9 ×10⁻⁶ cm/s | 4.19 | 64 µM | 4.19 | 64 µM | 4.19 | 64 µM | 0.877 | O=C(c1ccccc1)N1CCCC(c2cn3ncccc3n2)C1 (stereo unspecified) | 4.19 | 4.19 |  | 4.19 | 64 µM
64 µM | < 32.2 mL/min/kg | < 23 µL/min/mg | 564 mL/min/kg | 137 µL/min/mg | 2.61 | 64 µM | 1.58 ×10⁻⁶ cm/s | 4.19 | 64 µM | 4.19 | 64 µM | 4.19 | 64 µM |  | COc1ccc(C(=O)N2CCCC(c3cc4ncccc4[nH]3)C2)cc1OC (stereo unspecified) | 4.19 | 4.19 | 7.15 | 5.05 | 64 µM
32 µM | 1620 mL/min/kg |  | 1000 mL/min/kg |  |  | 32 µM |  | 4.49 | 32 µM | 4.49 | 32 µM | 4.49 | 32 µM |  | COc1ccc2cc(C(=O)N3CCCC(c4cc5ncccc5[nH]4)C3)[nH]c2c1 (stereo unspecified) | 4.49 | 4.49 | 7.95 | 5.39 | 7.62 µM
64 µM |  |  | 24700 mL/min/kg | 4010 µL/min/mg | 3.4 | 64 µM | 40.4 ×10⁻⁶ cm/s | 4.19 | 64 µM | 4.19 | 64 µM | 4.19 | 64 µM | 0.518 | O=C(c1ccccc1)N1CCN(c2nc3ccccc3s2)CC1 | 4.19 | 4.19 |  | 4.19 | 64 µM
64 µM | < 35 mL/min/kg | < 23 µL/min/mg | 763 mL/min/kg | 173 µL/min/mg | 1.97 | 64 µM | 2.43 ×10⁻⁶ cm/s | 4.19 | 64 µM | 4.19 | 64 µM | 4.19 | 64 µM | 0.723 | O=C(c1ccccc1)N1CCCC(c2nc3ncccc3[nH]2)C1 (stereo unspecified) | 4.19 | 4.19 |  | 4.19 | 64 µM
64 µM |  |  |  |  |  | 64 µM |  | 4.19 | 64 µM | 4.26 | 64 µM | 4.19 | 64 µM |  | O=C(OCc1ccccc1)N1CCCC(c2cn3cccnc3n2)C1 (stereo unspecified) | 4.19 | 4.19 | 1.88 | 4.46 | 64 µM
64 µM | > 200 mL/min/kg | 185 µL/min/mg | > 11300 mL/min/kg | 3540 µL/min/mg | 4.04 | 64 µM | 22.4 ×10⁻⁶ cm/s | 4.19 | 64 µM | 4.19 | 64 µM | 4.19 | 64 µM |  | CC(C)(C)OC(=O)N1CCCC(c2cn3nc(Cl)ccc3n2)C1 (stereo unspecified) | 4.19 | 4.19 | 2.15 | 4.53 | 60.3 µM
64 µM | 278 mL/min/kg | 127 µL/min/mg | 832 mL/min/kg | 128 µL/min/mg | 3.07 | 64 µM | 0.881 ×10⁻⁶ cm/s | 4.19 | 64 µM | 4.19 | 64 µM | 4.19 | 64 µM | 0.493 | O=C(c1cc(C(F)(F)F)n[nH]1)N1CCCC(c2cc3ncccc3[nH]2)C1 (stereo unspecified) | 4.19 | 4.19 |  | 4.19 | 64 µM
